From publication PMC4446620, “Bioactive Metabolites from Mangrove Endophytic Fungus Aspergillus sp. 16-5B” (Marine Drugs, 2015)
“Also recorded” adds a separate entry of the source.

Experiments:
α-glucosidase = α-glucosidase (Saccharomyces cerevisiae, UniProt P53341); assay: Assay for α-glucosidase inhibitory activity; assay type: biochemical; details: for inhibitory effect against α-glucosidase compared with acarbose, in words: versus the clinical α-glucosidase inhibitor acarbose
Procedure: All of the tests for α-glucosidase inhibitory activity were according to a previously described method. […] The reaction was monitored spectrophotometrically by measuring the absorbance at 400 nm for 1-min intervals. […] The IC50 values of the compounds were calculated by nonlinear regression analysis and expressed as the mean ± SD of two distinct experiments. Kinetic parameters were determined using the Lineweaver-Burk double-reciprocal plot method at increasing concentrations of substrates and inhibitors.

α-glucosidase, sequence (P53341 whole entry): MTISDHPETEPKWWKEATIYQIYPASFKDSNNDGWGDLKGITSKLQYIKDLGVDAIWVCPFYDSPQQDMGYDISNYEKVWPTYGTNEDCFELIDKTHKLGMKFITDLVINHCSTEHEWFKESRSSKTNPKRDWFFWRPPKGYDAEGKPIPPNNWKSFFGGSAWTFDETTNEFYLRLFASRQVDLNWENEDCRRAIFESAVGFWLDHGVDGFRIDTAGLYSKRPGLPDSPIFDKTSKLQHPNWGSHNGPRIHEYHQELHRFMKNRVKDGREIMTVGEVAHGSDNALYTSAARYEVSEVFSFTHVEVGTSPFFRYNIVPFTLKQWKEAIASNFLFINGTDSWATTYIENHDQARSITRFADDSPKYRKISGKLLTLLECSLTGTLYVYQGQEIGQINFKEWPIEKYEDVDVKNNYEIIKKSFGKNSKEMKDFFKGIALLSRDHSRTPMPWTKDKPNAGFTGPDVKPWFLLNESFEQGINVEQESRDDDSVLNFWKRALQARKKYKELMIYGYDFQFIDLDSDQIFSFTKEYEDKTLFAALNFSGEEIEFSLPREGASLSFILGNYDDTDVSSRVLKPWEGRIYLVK

| SMILES | melting point [°C] | α-glucosidase inhibitory activity, in words (α-glucosidase) | inhibitory effect against α-glucosidase compared with acarbose, in words (α-glucosidase) | inhibition type of α-glucosidase (kinetic analysis) (α-glucosidase; Lineweaver-Burk plot method) |
| --- | --- | --- | --- | --- |
| CCC[C@@]1(O)OC(=O)c2c1cc(O)c(O)c2C [Compound 4, (R)-3-demethylpurpurester A] | 201.2 to 201.9 | – | – | – |
| COC1(C)OC(=O)c2c(cc(O)c(C)c2O)C1O (stereo not shown) [Compound 2] | 174.4 to 174.9 | moderate inhibitory activities | more potent inhibitory effects | – |
| Cc1c(O)cc2c(c1O)C(=O)O[C@@H]2[C@H](C)O [Compound 6, pestaphthalides A] | – | moderate inhibitory activities | more potent inhibitory effects | – |
| CC=Cc1cc2c(o1)C(=O)C(C)(OC(=O)c1c(C)cc(O)cc1O)C(O)C2 (stereo not shown) [Compound 1, aspergifuranone] | 121.1 to 121.6 | – | more potent inhibitory effects | noncompetitive inhibitor; also recorded: noncompetitive inhibition |
| COC1(C)OC(=O)c2c(cc(O)c(C)c2O)C1=O (stereo not shown) [Compound 3] | 134.2 to 134.8 | – | – | – |
